{"source": "patent US20030044380A1", "about": "“Adhesive including medicament” (priority 2001, published 2003)", "key": {"[1]": {"assay": "Direct blending of unencapsulated medicament with cyanoacrylic ester (storage stability)", "assay_type": "physicochemical", "procedure": "Adhesive formulations including unencapsulated antibiotics were investigated. The medicaments were vacuum dried for 6 hours at room temperature in the presence of phosphorous pentoxide to remove the residual water. Direct blending of the medicaments with cyanoacrylic ester was conducted in a drying chamber protected by a high-purity nitrogen atmosphere."}, "[2]": {"assay": "Solubility in formaldehyde acetone crosslinking solution", "assay_type": "physicochemical", "excerpt": "While not wishing to be limited to any particular mechanism, it is believed that the crosslinking step accounts, in part, for the encapsulation efficiency."}, "[3]": {"assay": "Stability of medicament in aqueous solution or extract (UV, HPLC)", "conditions": "physiologic saline or aqueous solution", "description": "Because the UV spectra of DSP and the extractive aqueous solution of Super Glue™ have overlapped absorptions at 240 nm, the release behavior of cyanoacrylate adhesives containing DSP microcapsules was studied by HPLC instead of UV spectroscopy."}, "[4]": {"assay": "Release of medicament from solidified adhesive film into physiologic saline", "assay_type": "physicochemical", "conditions": "extract in physiologic saline, UV spectroscopy", "protocol": "Samples of adhesive containing either encapsulated Penicillin G or unencapsulated Penicillin G were prepared as described above. Solidification of the adhesives was carried out in moist air so as to provide an accelerated solidification rate. The solidified adhesives having a thickness of about 1 mm were cut into small pieces which were immersed in physiologic saline at room temperature. The aqueous extracts were examined using UV spectroscopy."}}, "data": [{"smiles": "COc1c(N2CCNC(C)C2)c(F)cc2c(=O)c(C(=O)O)cn(C3CC3)c12", "note": "(stereo not drawn) [Gatifloxacin]", "values": [{"measurement": "time to solidification after direct mixing", "setting": "[1]; methyl cyanoacrylate (Super Glue) with dry powder, room temperature", "value": "about 3 hours"}, {"measurement": "solubility in a formaldehyde acetone solution", "setting": "[2]", "value": "relatively weak solubility"}]}, {"smiles": "CC1(C)S[C@@H]2[C@H](NC(=O)Cc3ccccc3)C(=O)N2[C@H]1C(=O)[O-].[Na+]", "note": "[Penicillin G, Penicillin G Sodium Salt]", "values": [{"measurement": "stability in aqueous solution / aqueous extract", "setting": "[3]", "value": "observed to decompose during the release process"}, {"measurement": "observation on direct mixing with Super Glue", "setting": "[1]; unencapsulated medicament", "value": "Agglomeration was observed"}, {"measurement": "release from solidified adhesive film", "setting": "[4]", "value": "no detectable release"}]}, {"smiles": "Nc1ccc(S(N)(=O)=O)cc1", "note": "[Sulfanilamide, Sulfanilamidum Crystallinum Sterile]", "values": [{"measurement": "shelf life of cyanoacrylate adhesives in the presence of unencapsulated medicament", "setting": "[1]; direct blending under nitrogen", "value": "more than 24 hours"}]}]}
